One series relates to southern armyworm (SAW). Briefly: southern armyworm mortality test (bush lima bean leaf dip). The class given is in vivo, Prodenia eridania Cramer. Conditions: Spodoptera eridania, foliar. The source says: (§1) Representative pest species have been used, illustratively, order Lepidoptera, more specifically, the southern armyworm (SAW), (Prodenia eridania Cramer), the tobacco budworm (TBW), (Heliothis virescens), and the cabbage looper (CL) (Trichoplusia ni); order Acarina, more specifically, the two-spotted spider mite (TSSM) (Tetranychus urticae Koch); order Diptera, more specifically, the housefly (HF) (Musca domestica Linnaeus) or the yellow-fever mosquito (YFM) (Aedes aegypti); order Orthoptera, more specifically, the house cricket (HC) (Acheta domesticus Linnaeus) or the German cockroach (GC) (Blatella germanica Linnaeus); order Coleoptera, more specifically, the cotton boll weevil (BW) (Anthonomus grandis Boheman).
(§2) Preparation of tested chemicals--Analytical samples of each were dissolved in acetone. These acetone solutions were applied as such or portions of them were diluted with a Tween 20 "wet water" or a 10% sucrose "wet water". The "wet water" itself contained 0.132% v/v of Tween 20 (polyoxyethylene sorbitan monolaurate).
(§3) The southern armyworm and cabbage looper tests were effected with Henderson bush lima bean foliage characterized by two primary leaves per replicate. The leaves were dipped into a "wet water" emulsion of a test chemical, allowed to dry, and then placed on a moistened filter disk in a 9 cm plastic petri dish. Five larva of the respective test insects were put on the leaves, the cover of the petri dish was replaced, and it was set aside for future evaluation. Three replications for each treatment rate were prepared.
(§4) The southern armyworm, house cricket, boll weevil, house fly, and cabbage looper tests were held at 22° C., while the yellow fever mosquito larvae tests were held at 27° C.
(§5) The tests were evaluated for insect kill (including moribund and knocked down) after 24, 48, and sometimes 72 hours.

In the next series the test system is tobacco budworm (TBW). Briefly: tobacco budworm mortality test. It counts as in vivo. As to conditions: Heliothis virescens.
From the text: as §1, §2, §5

The next series deals with cabbage looper (CL). The experiment in a line: cabbage looper mortality test (bush lima bean leaf dip). The class given is in vivo. As to conditions: Trichoplusia ni, foliar; for mortality at 11 ppm: rate 11 ppm.
From the text: as §1, §2, §3, §4, §5

A further series has as its system plant. The experiment in a line: phytotoxicity compared with the parent compound. It counts as in vivo. Conditions: for average phytotoxicity index: after eight days, scale 0 = no damage, 10 = complete kill of plant. The source says:
(§6) In other tests, the phytotoxicity, residual effectiveness, and animal toxicity of e.g. Methyl N-[[[[[(diethoxyphosphinothioyl)isopropylamino]thio]methylamino]carbonyl]oxy]ethanimidothioate were compared with the parent compound, methyl N-[[(methylamino)carbonyl]oxy]ethanimidothioate. […] The parent compound had corresponding index values of 4.25 and 5.0.

The nature of series [1]: acute oral toxicity to male rats. It counts as in vivo, rat. Conditions: rat, in vivo.
For another series, the system named is southern armyworm larvae. The experiment in a line: foliar residual effectiveness against southern armyworm larvae on lima bean seedlings. It counts as in vivo, Prodenia eridania Cramer. An excerpt:
These compounds were also compared for their foliar residual effectiveness against southern armyworm larvae on lima bean seedlings. The compound Methyl N-[[[[[(diethoxyphosphinothioyl)isopropylamino]thio]methylamino]carbonyl]oxy]ethanimidothioate of this invention was producing 100 percent mortality seven weeks after the treatment was applied, whereas the activity of the parent compound at an equivalent rate had dissipated to 20% by the 14th day.

A further series has as its system housefly (HF). Briefly: house fly mortality test (saturated cotton wad). As to conditions: Musca domestica. It counts as in vivo, Musca domestica Linnaeus.
From the text: as §1, §2
(§7) The house fly and boll weevil tests were effected by saturating a golf-ball size wad of cotton with 10 ml of a "10% wet sugar water" preparation of the test chemical. […]
as §5

Series [2] deals with yellow-fever mosquito (YFM). Briefly: whole plant or invertebrate. It counts as in vivo. As to conditions: Aedes aegypti.
From the text: as §1, §2
The yellow fever mosquito larvae test was effected by adding the appropriate amount of a wet water and acetone solution of the test chemical to 100 ml distilled water in a 5-ounce waxed paper cup. Ten mosquito larvae were added. […]
as §5

The subject of another series is eggplant. Briefly: phytotoxicity on the sensitive crop, eggplant, compared with the parent compound. It counts as in vivo.
From the text: as §6

The subject of the next series is cotton boll weevil (BW). Briefly: boll weevil mortality test (saturated cotton wad). It counts as in vivo, Anthonomus grandis Boheman.
From the text: as §1, §2, §7, §5

The next series has as its system male rats. The experiment in a line: acute oral toxicity to male rats. It counts as in vivo, rat.
The next series in a line: crystallinity. The class given is physicochemical.
Series [3] in a line: Mammalian Toxicity, oral LD50, rat. As to conditions: in vivo.

Where two headings read alike, the source gives them in different places.

As a reminder, the mortality is the share of the test organisms that died. As for `CSC(C)=NOC(=O)N(C)SN(C(C)C)P1(=S)OCCO1` [Methyl N-[[[[[isopropyl(2-thioxo-1,3,2-phospholan-2-yl)amino]thio]methylamino]carbonyl]oxy]ethanimidothioate], the results for the mortality at 11 ppm in the series on southern armyworm (SAW), in the series with tobacco budworm (TBW) and with cabbage looper (CL) (CL) were 40%, 45% and 48%, respectively.
As usually defined, the LD50 is the dose at which mortality reaches 50%. A high value points to a less toxic substance. As to `CNC(=O)ON=C(C)SC` [methyl N-[[(methylamino)carbonyl]oxy]ethanimidothioate, reference compound], the average phytotoxicity index with plant (300 ppm) is on record as 4.25; with plant (600 ppm) it was 5.0. Further, the 50% lethal dose (LD50) in series [1] is 17 to 24 mg/kg. In addition, in the series with southern armyworm larvae (by the 14th day, at an equivalent rate), the foliar residual activity is given as 20%.
`CCN(SN(C)C(=O)ON=C(C)SC)P1(=S)OCC(C)(C)CO1` [Methyl-[[[[[ethyl(5,5-dimethyl-2-thioxo-1,3,2-dioxaphosphorinan-2-yl)amino]thio]methylamino]carbonyl]oxy]ethanimidothioate]: the mortality at 11 ppm in the series with cabbage looper (CL) (CL) is 56%.
Turning to `CCOP(=S)(OCC)N(SN(C)C(=O)ON=C(C)SC)C(C)C` [Methyl N-[[[[[(diethoxyphosphinothioyl)isopropylamino]thio]methylamino]carbonyl]oxy]ethanimidothioate], the average phytotoxicity index result with plant (300 ppm) was “about 1.0”; in the series with plant (600 ppm) it was roughly 1.5. Besides, the “phytotoxicity compared with parent compound” value in the series on plant (in general) is given as “in general less phytotoxic than the parent”; with eggplant, “markedly less phytotoxic”. In the series on housefly (HF) (HF, rate 25 ppm, read-out: Mortality), the mortality at 25 ppm amounted to 80%. In series [2] (rate 1.0 ppm), this compound yielded a mortality at 1 ppm of 100%. This compound returned a mortality at 50 ppm with cotton boll weevil (BW) (BW, rate 50 ppm) of 60%. Also, the mortality at 3.3 ppm with southern armyworm (SAW) was found to be 100%; in the series on cabbage looper (CL) (CL, rate 3.3 ppm, read-out: Mortality), 100%. In addition, in [1], the LD50 worked out at 105 mg/kg. For the same compound, the “oral toxicity relative to the parent methylcarbamate” value with male rats is “less than one fourth as toxic as the parent methylcarbamate”. In addition, the “mortality, foliar residual effectiveness” value with southern armyworm larvae (seven weeks after the treatment was applied, 70560 min) is recorded as 100%.
Take `CSC(C)=NOC(=O)N(C)SN(C(C)(C)C)P1(=S)OCC(C)(C)CO1` [Methyl N-[[[[[(5,5-dimethyl-2-thioxo-1,3,2-dioxaphosphorinano-2-yl)tert-butylamino]thio]methylamino]carbonyl]oxy]ethanimidothioate]: the crystallinity result in the series “crystallinity” is reported as “extremely crystalline”.
`CSC(C)=NOC(=O)N(C)SN(C(C)C)P1(=S)OC(C)CC(C)(C)O1` (centres unmarked) [Methyl N-[[[[[isopropyl(4,4,6-trimethyl-2-thioxo-1,3,2-dioxaphosphorinan-2-yl)amino]thio]methylamino]carbonyl]oxy]ethanimidothioate] showed a mortality at 11 ppm in the series on cabbage looper (CL) (CL) of 92.5%.
For `CSC(C)=NOC(=O)N(C)SN(C1CCCCC1)P1(=S)OCC(C)(C)CO1` [Methyl N-[[[[[cyclohexyl(5,5-dimethyl-2-thioxo-1,3,2-dioxaphosphorinan-2-yl)amino]thio]methylamino]carbonyl]oxy]ethanimidothioate], the mortality at 11 ppm in the series on southern armyworm (SAW) was 70%; with tobacco budworm (TBW), 95%; with cabbage looper (CL) (CL), 87.5%. The compound also yielded an LD50 in [3] greater than 8000 mg/kg.
In the case of `CCCN(SN(C)C(=O)Oc1cc(C)c(N(C)C)c(C)c1)P(=S)(OCC)OCC` [4-(dimethylamino)-3,5-xylyl [[(diethoxyphosphinothioyl)-n-propylamino]thio]methylcarbamate], the mortality at 0.6 ppm in series [2] (rate 0.6 ppm) amounted to 100%. Moreover, the mortality at 100 ppm in the series with southern armyworm (SAW) turned out to be 100%.
In the case of `CCC1(CC)COP(=S)(N(SN(C)C(=O)ON=C(C)SC)C(C)C)OC1` [Methyl N-[[[[[isopropyl(5,5-diethyl-2-thioxo-1,3,2-dioxaphosphorinan-2-yl)amino]thio]methylamino]carbonyl]oxy]ethanimidothioate], the mortality at 11 ppm came out at 60% in the series with southern armyworm (SAW), 100% in the series with tobacco budworm (TBW) and 95% in the series with cabbage looper (CL) (CL). Moreover, the median lethal dose (LD50) in [3] was greater than 2000 mg/kg.
Turning to `CCC1(CC)COP(=S)(N(SN(C)C(=O)ON=C(C)SC)C2CCCCC2)OC1` [Methyl-[[[[[cyclohexyl(5,5-diethyl-2-thioxo-1,3,2-dioxaphosphorinan-2-yl)amino]thio]methylamino]carbonyl]oxy]ethanimidothioate], the results for the mortality at 11 ppm in the series on southern armyworm (SAW), with tobacco budworm (TBW) and with cabbage looper (CL) (CL) were 70%, 95% and 77.5%, respectively. The compound further showed a 50% lethal dose (LD50) in [3] greater than 8000 mg/kg.
In the case of `COP(=S)(c1ccccc1)N(SN(C)C(=O)ON=C(C)SC)C(C)C` (centres unmarked) [Methyl N-[[[[[[methoxy(phenyl)phosphinothioyl]isopropylamino]thio]methylamino]carbonyl]oxy]ethanimidothioate], the mortality at 25 ppm in the series with housefly (HF) was 50%; with cotton boll weevil (BW), 80%. The figures for the mortality at 3.3 ppm in the series on southern armyworm (SAW) and in the series on cabbage looper (CL) were 90% and 50%, respectively.
For the compound `CSC(C)=NOC(=O)N(C)SN(C(C)C)P1(=S)OCCCO1` [Methyl-[[[[[isopropyl(2-thioxo-1,3,2-dioxaphosphorinan-2-yl)amino]thio]methylamino]carbonyl]oxy]ethanimidothioate], the mortality at 11 ppm in the series on southern armyworm (SAW) amounted to 56%.

These data come from US4208409A, “N-[(phosphinyl or phosphinothioyl)amino]thio-methylcarbamates and pesticidal methods” (priority 1978, dated 1980).
